Measurements: ChEMBL document CHEMBL3992508, “Synthesis and bioactivity investigation of quinone-based dimeric cationic triazolium amphiphiles selective against resistant fungal and bacterial pathogens” (Eur J Med Chem, 2017)
≈ marks a conversion by molar mass, not a printed value. Calls of active or inactive are those of the source. The rule behind the calls is not given here.

Tests used:
Candida albicans [1] = assay: Antifungal activity against Candida albicans ATCC 64124 assessed as cell membrane disruption at MIC after 1 hr by Sytox Green dye based fluorescence assay; type: functional
Pseudomonas aeruginosa [2] = assay: Antibacterial activity against Pseudomonas aeruginosa ATCC 27853; type: functional
Klebsiella pneumoniae [3] = assay: Antibacterial activity against Klebsiella pneumoniae ATCC 13883; type: functional
Rhodotorula mucilaginosa = assay: Antifungal activity against Rhodotorula pilimanae; type: functional
SK-OV-3 [4] = assay: Cytotoxicity against human SKOV3 cells after 48 hrs; type: cell-based; settings: SK-OV-3, 48 h
Enterococcus faecalis [5] = assay: Antibacterial activity against vancomycin-resistant Enterococcus faecalis ATCC 51299; type: functional
Staphylococcus aureus [6] = assay: Antibacterial activity against methicillin-resistant Staphylococcus aureus ATCC 33591; type: functional
Cryptococcus neoformans = assay: Antifungal activity against Cryptococcus neoformans; type: functional
Staphylococcus aureus [7] = assay: Antibacterial activity against Staphylococcus aureus ATCC 25923; type: functional
Candida albicans [8] = assay: Antifungal activity against azole-susceptible Candida albicans MYA2876; type: functional
SK-OV-3 [9] = assay: Cytotoxicity against human SKOV3 cells at 10 ug/ml after 48 hrs by MTT assay; type: cell-based; settings: sk-ov-3, 48 h
Candida albicans [10] = assay: Antifungal activity against azole-resistant Candida albicans ATCC 64124; type: functional
Fusarium graminearum = assay: Antifungal activity against Fusarium graminearum B4-A5 assessed as cell membrane disruption at MIC after 1 hr by Sytox Green dye based fluorescence assay; type: functional
Escherichia coli [11] = assay: Antibacterial activity against Escherichia coli ATCC 25922; type: functional
Aspergillus flavus = assay: Antifungal activity against Aspergillus flavus; type: functional
Staphylococcus aureus [12] = assay: Antibacterial activity against methicillin-resistant Staphylococcus aureus ATCC 33591 at 5 mg/ml; type: functional
Pseudomonas aeruginosa [13] = assay: Antibacterial activity against Pseudomonas aeruginosa ATCC 27853 at 5 mg/ml; type: functional
Staphylococcus aureus [14] = assay: Antibacterial activity against Staphylococcus aureus ATCC 25923 at 5 mg/ml; type: functional
Enterococcus faecalis [15] = assay: Antibacterial activity against vancomycin-resistant Enterococcus faecalis ATCC 51299 at 5 mg/ml; type: functional
Klebsiella pneumoniae [16] = assay: Antibacterial activity against Klebsiella pneumoniae ATCC 13883 at 5 mg/ml; type: functional
Escherichia coli [17] = assay: Antibacterial activity against Escherichia coli ATCC 25922 at 5 mg/ml; type: functional

Compound	MIC (Pseudomonas aeruginosa [2])	MIC (Klebsiella pneumoniae [3])	MIC (Rhodotorula mucilaginosa)	IC50 (SK-OV-3 [4])	MIC (Enterococcus faecalis [5])	MIC (Staphylococcus aureus [6])	MIC (Cryptococcus neoformans)	MIC (Staphylococcus aureus [7])	MIC (Candida albicans [8])	Activity (SK-OV-3 [9])	MIC (Candida albicans [10])	MIC (Escherichia coli [11])	MIC (Aspergillus flavus)	further results
CCCCCCCCCC[n+]1nn(CCCCCCn2n[n+](CCCCCCCCCC)c3c2C(=O)c2ccccc2C3=O)c2c1C(=O)c1ccccc1C2=O.O=S(=O)([O-])C(F)(F)F.O=S(=O)([O-])C(F)(F)F	4 µg/mL	32 µg/mL	2 µg/mL	68.4 µg/mL	1 µg/mL	4 to 8 µg/mL	2 µg/mL	8 µg/mL	3.91 µg/mL	Non-Toxic	3.91 µg/mL	4 to 8 µg/mL	7.81 µg/mL	Activity (Candida albicans [1]): Active; Activity (Fusarium graminearum): Active
CN[C@H](CC(C)C)C(=O)N[C@H]1C(=O)N[C@@H](CC(N)=O)C(=O)N[C@H]2C(=O)N[C@H]3C(=O)N[C@H](C(=O)N[C@H](C(=O)O)c4cc(O)cc(O)c4-c4cc3ccc4O)[C@H](O)c3ccc(c(Cl)c3)Oc3cc2cc(c3O[C@@H]2O[C@H](CO)[C@@H](O)[C@H](O)[C@H]2O[C@H]2C[C@](C)(N)[C@H](O)[C@H](C)O2)Oc2ccc(cc2Cl)[C@H]1O [VANCOMYCIN]	> 250 µg/mL	> 250 µg/mL	–	–	125 µg/mL (≈ 86.3 µM)	2 to 4 µg/mL (≈ 1.38 to 2.76 µM)	–	–	–	–	–	64 to 125 µg/mL (≈ 44.2 to 86.3 µM)	–	–
CC[n+]1nn(CCCCCCn2n[n+](CC)c3c2C(=O)c2ccccc2C3=O)c2c1C(=O)c1ccccc1C2=O.O=S(=O)([O-])C(F)(F)F.O=S(=O)([O-])C(F)(F)F	250 µg/mL	250 µg/mL	–	–	32 µg/mL	> 250 µg/mL	–	0.125 µg/mL	> 250 µg/mL	–	> 250 µg/mL	> 250 µg/mL	> 250 µg/mL	–
OC(Cn1cncn1)(Cn1cncn1)c1ccc(F)cc1F [FLUCONAZOLE]	–	–	–	–	–	–	–	–	1.56 µg/mL (≈ 5.09 µM)	–	> 250 µg/mL	–	–	–
CCCCCCCCS(=O)(=O)OC[C@H]1O[C@H](O[C@@H]2[C@@H](O)[C@H](O[C@H]3O[C@H](CN)[C@@H](O)[C@H](O)[C@H]3O)[C@@H](N)C[C@H]2N)[C@H](O)[C@@H](N)[C@@H]1O.Cl.Cl.Cl.Cl	–	–	–	–	–	–	7.8 µg/mL	–	15.6 µg/mL	–	31.3 µg/mL	–	> 250 µg/mL	–
NCC[C@H](O)C(=O)N[C@@H]1C[C@H](N)[C@@H](O[C@H]2O[C@H](CN)[C@@H](O)[C@H](O)[C@H]2O)[C@H](O)[C@H]1O[C@H]1O[C@H](CO)[C@@H](O)[C@H](N)[C@H]1O [AMIKACIN]	1 µg/mL (≈ 1.71 µM)	1 µg/mL (≈ 1.71 µM)	–	–	> 250 µg/mL	16 µg/mL (≈ 27.3 µM)	–	0.5 µg/mL (≈ 0.854 µM)	–	–	–	1 µg/mL (≈ 1.71 µM)	–	–
CCCC[n+]1nn(CCCCCCn2n[n+](CCCC)c3c2C(=O)c2ccccc2C3=O)c2c1C(=O)c1ccccc1C2=O.O=S(=O)([O-])C(F)(F)F.O=S(=O)([O-])C(F)(F)F	32 µg/mL	250 µg/mL	–	115 µg/mL	16 µg/mL	> 250 µg/mL	–	0.125 µg/mL	> 250 µg/mL	Non-Toxic	250 µg/mL	> 250 µg/mL	> 250 µg/mL	–
C[n+]1nn(CCCCCCn2n[n+](C)c3c2C(=O)c2ccccc2C3=O)c2c1C(=O)c1ccccc1C2=O.O=S(=O)([O-])C(F)(F)F.O=S(=O)([O-])C(F)(F)F	250 µg/mL	250 µg/mL	62.5 µg/mL	46.1 µg/mL	16 µg/mL	> 250 µg/mL	125 µg/mL	0.125 µg/mL	> 250 µg/mL	Toxic	> 250 µg/mL	> 250 µg/mL	> 250 µg/mL	–
O=C1c2ccccc2C(=O)c2c1nnn2CCCCCCn1nnc2c1C(=O)c1ccccc1C2=O	–	–	–	–	–	–	–	–	–	–	–	–	–	Activity (Staphylococcus aureus [12]): inactive; Activity (Pseudomonas aeruginosa [13]): inactive; Activity (Staphylococcus aureus [14]): inactive; Activity (Enterococcus faecalis [15]): inactive; Activity (Klebsiella pneumoniae [16]): inactive; Activity (Escherichia coli [17]): inactive
CCCCCC[n+]1nn(CCCCCCn2n[n+](CCCCCC)c3c2C(=O)c2ccccc2C3=O)c2c1C(=O)c1ccccc1C2=O.O=S(=O)([O-])C(F)(F)F.O=S(=O)([O-])C(F)(F)F	16 µg/mL	250 µg/mL	15.6 µg/mL	109 µg/mL	4 µg/mL	8 to 16 µg/mL	125 µg/mL	4 µg/mL	> 250 µg/mL	Non-Toxic	250 µg/mL	8 to 16 µg/mL	> 250 µg/mL	–
CCCCCCCC[n+]1nn(CCCCCCn2n[n+](CCCCCCCC)c3c2C(=O)c2ccccc2C3=O)c2c1C(=O)c1ccccc1C2=O.O=S(=O)([O-])C(F)(F)F.O=S(=O)([O-])C(F)(F)F	4 µg/mL	16 µg/mL	2 µg/mL	74 µg/mL	1 µg/mL	4 to 8 µg/mL	3.9 µg/mL	4 µg/mL	3.91 µg/mL	Non-Toxic	3.91 µg/mL	2 to 4 µg/mL	15.6 µg/mL	–
NC[C@H]1O[C@H](O[C@H]2[C@H](O)[C@@H](O[C@H]3O[C@H](CO)[C@@H](O)[C@H](N)[C@H]3O)[C@H](N)C[C@@H]2N)[C@H](O)[C@@H](O)[C@@H]1O [KANAMYCIN]	125 µg/mL (≈ 258 µM)	1 µg/mL (≈ 2.06 µM)	–	–	250 µg/mL (≈ 516 µM)	125 to 250 µg/mL (≈ 258 to 516 µM)	–	2 to 4 µg/mL (≈ 4.13 to 8.26 µM)	–	–	–	4 µg/mL (≈ 8.26 µM)	–	–
